PMC12655351, “Synthesis and Anticancer Activity Evaluation of New 5-((5-Nitrofuran-2-yl)allylidene)-2-thioxo-4-thiazolidinones” (Pharmaceuticals, 2025)
Where “and” joins values, the source holds several entries; their conditions need not be identical. Equal entries are not always repeated. Where two headings read alike, the source gives them in different places.

Columns and labels:
[1] = tested on: CCRF-CEM; conditions: 48 h
[2] = tested on: NCI-H23; conditions: for CC50: human
[3] = tested on: HT29; conditions: HT29, 48 h
[4] = tested on: SF-539; conditions: SF-539, 10 μM, 48 h
[5] = tested on: OVCAR-3; conditions: for GI50 / TGI: OVCAR-3, 48 h
[6] = tested on: OVCAR-8
[7] = tested on: NCI/ADR-RES; conditions: 48 h
[8] = tested on: SK-OV-3
[9] = tested on: 786-0; conditions: 786-0, 48 h
[10] = tested on: A498; conditions: A498, 48 h
[11] = tested on: CAKI-1; conditions: for growth GP: CAKI-1, 10 μM, 48 h; for GI50 / TGI: CAKI-1, 48 h
[12] = tested on: MDA-MB-231/ATCC; conditions: 10 μM, 48 h
[13] = tested on: T-47D; conditions: 48 h
[14] = tested on: Melanoma; conditions: Melanoma subpanel
[15] = tested on: Ovarian cancer; conditions: Ovarian cancer subpanel
[16] = tested on: Prostate Cancer; conditions: Prostate Cancer subpanel
[17] = tested on: Breast cancer; conditions: Breast cancer subpanel
[18] = tested on: K-562; experiment: cells; conditions: Homo sapiens, K562, 48 h; for GI50: K-562, 48 h; for CC50: read-out: LC50
[19] = tested on: RPMI-8226; experiment: cells; conditions: Homo sapiens, RPMI-8226, 48 h
[20] = tested on: HCT-116; experiment: cells; conditions: Homo sapiens, HCT-116, 48 h
[21] = tested on: UACC-257; experiment: cells; conditions: Homo sapiens, UACC-257, 48 h; for CC50: read-out: LC50, UACC-257, 48 h
[22] = tested on: OVCAR-4; experiment: cells; conditions: Homo sapiens, OVCAR-4, 48 h; for CC50: read-out: LC50, OVCAR-4, 48 h
[23] = tested on: OVCAR-8; experiment: cells; conditions: Homo sapiens, OVCAR-8, 48 h
[24] = tested on: NCI/ADR-RES; experiment: cells; conditions: Homo sapiens, 48 h
[25] = tested on: 786-0; experiment: cells; conditions: Homo sapiens, 786-0, 48 h
[26] = tested on: CNS cancer; experiment: cells; conditions: Homo sapiens; for GI50: read-out: MG_MID GI50; for CC50: read-out: MG_MID LC50
[27] = tested on: Melanoma; experiment: cells; conditions: Homo sapiens; for GI50: read-out: MG_MID GI50; for CC50: read-out: MG_MID LC50
[28] = tested on: HL-60(TB); experiment: NCI-60 SRB screen
[29] = tested on: HOP-92; experiment: NCI-60 SRB screen; conditions: HOP-92, 48 h
[30] = tested on: NCI-H460; experiment: NCI-60 SRB screen; conditions: NCI-H460, 48 h; for CC50: read-out: LC50
[31] = tested on: HCT-15; experiment: NCI-60 SRB screen; conditions: HCT-15, 48 h
[32] = tested on: SF-295; experiment: NCI-60 SRB screen; conditions: SF-295, 48 h; for CC50: read-out: LC50, SF-295, 48 h
[33] = tested on: SK-MEL-2; experiment: NCI-60 SRB screen; conditions: SK-MEL-2, 48 h; for CC50: Homo sapiens, read-out: LC50, SK-MEL-2, 48 h
[34] = tested on: IGROV1; experiment: NCI-60 SRB screen
[35] = tested on: Colon cancer; experiment: NCI-60 SRB screen, subpanel; conditions: for MG_MID TGI: Colon cancer subpanel; for GI50 / CC50: Homo sapiens; for GI50: read-out: MG_MID GI50; for CC50: read-out: MG_MID LC50
[36] = tested on: SR; conditions: 48 h
[37] = tested on: MDA-MB-435
[38] = tested on: HS 578T; conditions: 48 h
[39] = tested on: MDA-MB-435; experiment: cells; conditions: Homo sapiens, MDA-MB-435, 48 h
[40] = tested on: UO-31; experiment: cells; conditions: Homo sapiens, UO-31, 48 h
[41] = Homo sapiens, read-out: LC50, HOP-92, 48 h
[42] = Homo sapiens, IGROV-1, 48 h, read-out: LC50, IGROV1, 48 h

With O=C(O)CCCN1C(=O)/C(=C/C=C/c2ccc([N+](=O)[O-])o2)SC1=S [13b, 4-((Z)-5-((E)-3-(5-Nitrofuran-2-yl)allylidene)-4-oxo-2-thioxothiazolidin-3-yl)butanoic acid] the GI50 [1] was 0.12 µM, the TGI [1] was 0.82 µM and 0.78 µM and the “growth GP” value ([2]; NCI-H23, 10 μM, 48 h) was -93.85%. For the same compound, the TGI ([2]; NCI-H23, 48 h) was 3.09 µM and 2.04 µM, the CC50 ([2]; 48 h) was 5.7 µM and the GI50 [3] was 0.26 µM. For the same compound, the “growth GP” value [4] was -98.91%, the GI50 [5] was 0.39 µM and the TGI [5] was 2.04 µM and 1.36 µM. The GI50 ([6]; OVCAR-8, 48 h) was 0.27 µM, the TGI ([6]; OVCAR-8, 48 h) was 2.25 µM and 1.24 µM and the GI50 [7] was 0.26 µM. For the same compound, the TGI [7] was 1.23 µM and 0.77 µM, the GI50 ([8]; SK-OV-3, 48 h) was 2.18 µM and the TGI ([8]; SK-OV-3, 48 h) was 7.44 µM and 13.1 µM. The CC50 ([8]; human, 48 h) was 39.4 µM, the GI50 [9] was 0.28 µM and the TGI [9] was 1.30 µM and 0.90 µM. For the same compound, the GI50 [10] was 3.32 µM, the TGI [10] was 11.5 µM and 8.16 µM and the “growth GP” value [11] was -96.66%. The GI50 [11] was 0.77 µM, the TGI [11] was 1.97 µM and 2.04 µM and the “growth GP” value [12] was -95.61%. The GI50 [13] was 0.23 µM, the “MG_MID TGI” value [14] was 1.46 µM and the “MG_MID TGI” value [15] was 2.99 µM. The “MG_MID TGI” value [16] was 2.57 µM, the “MG_MID TGI” value [17] was 2.15 µM and the GI50 [18] was 0.16 µM. For the same compound, the CC50 [18] was > 100 µM, the GI50 [19] was 0.36 µM and the CC50 ([19]; read-out: LC50) was > 100 µM. The GI50 [20] was 0.31 µM, the CC50 [21] was 6.36 µM and the GI50 [22] was 1.16 µM. It also gave a CC50 [22] of 5.75 µM, a GI50 [23] of 0.46 µM and a GI50 [24] of 0.29 µM. It also gave a GI50 [25] of 0.32 µM, a GI50 [26] of 0.8 µM and a CC50 [26] of 6.68 µM. For the same compound, the GI50 [27] was 0.59 µM, the CC50 [27] was 3.6 µM and the CC50 ([28]; Homo sapiens, HL-60, 48 h, read-out: LC50, HL-60(TB), 48 h) was > 100 µM. The CC50 [29, 41] was 6.33 µM, the CC50 ([29]; read-out: LC50) was 4.24 µM and the GI50 ([30]; Homo sapiens) was 0.63 µM. For the same compound, the CC50 ([30]; Homo sapiens) was 4.94 µM, the GI50 [30] was 0.33 µM and the TGI [30] was 1.99 µM and 1.39 µM. For the same compound, the GI50 [31] was 0.11 µM, the TGI [31] was 0.52 µM and 0.33 µM and the GI50 ([31]; Homo sapiens) was 0.18 µM. For the same compound, the CC50 ([32]; Homo sapiens) was 6.31 µM, the TGI [32] was 3.24 µM and 2.07 µM and the CC50 [33] was 6.12 µM. For the same compound, the CC50 [34, 42] was 5.14 µM, the “MG_MID TGI” value [35] was 1.35 µM and the GI50 [35] was 0.52 µM. It also gave a CC50 [35] of 11.9 µM.
O=C(O)CCCCCN1C(=O)/C(=C/C=C/c2ccc([N+](=O)[O-])o2)SC1=S [14b, 6-((Z)-5-((E)-3-(5-nitrofuran-2-yl)allylidene)-4-oxo-2-thioxothiazolidin-3-yl)hexanoic acid] was tested, and the GI50 [1] was 0.27 µM, the TGI [1] was 0.57 µM and 0.96 µM and the TGI [36] was 0.96 µM. The GI50 ([2]; NCI-H23, 48 h) was 1.23 µM, the TGI ([2]; NCI-H23, 48 h) was 3.10 µM and 2.69 µM and the CC50 ([2]; 48 h) was 5.89 µM. The GI50 [3] was 1.13 µM, the TGI [3] was 2.71 µM and 3.39 µM and the “growth GP” value [4] was -98.05%. The GI50 ([37]; MDA-MB-435, 48 h) was 0.28 µM, the CC50 ([37]; human, 48 h) was 2.74 µM and the “growth GP” value ([5]; OVCAR-3, 10 μM, 48 h) was -95.33%. For the same compound, the GI50 [5] was 0.96 µM, the TGI [5] was 2.35 µM and 2.22 µM and the GI50 ([6]; OVCAR-8, 48 h) was 0.3 µM. The CC50 ([6]; human, 48 h) was 9.71 µM, the GI50 [7] was 0.43 µM and the TGI [7] was 1.85 µM and 2.39 µM. The GI50 ([8]; SK-OV-3, 48 h) was 2.98 µM, the GI50 [9] was 0.32 µM and the TGI [9] was 2.06 µM and 1.23 µM. The GI50 [10] was 10.2 µM, the TGI [10] was 20.8 µM and 22.8 µM and the “growth GP” value [11] was -96.43%. For the same compound, the GI50 [11] was 1.4 µM, the TGI [11] was 2.09 µM and 2.72 µM and the “growth GP” value [12] was -99.86%. The GI50 [38] was 0.79 µM, the TGI [38] was 6.44 µM and 7.76 µM and the “MG_MID TGI” value [14] was 1.82 µM. The “MG_MID TGI” value [15] was 2.92 µM, the “MG_MID TGI” value [16] was 3.13 µM and the “MG_MID TGI” value [17] was 2.61 µM. The GI50 [18] was 0.2 µM, the CC50 [18] was > 100 µM and the GI50 [19] was 0.33 µM. For the same compound, the GI50 [20] was 0.31 µM, the GI50 [39] was 0.42 µM and the CC50 ([39]; read-out: LC50, MDA-MB-435, 48 h) was 4.47 µM. For the same compound, the GI50 [21] was 1.6 µM, the CC50 [21] was 6.27 µM and the GI50 [22] was 1.31 µM. For the same compound, the CC50 [22] was 5.41 µM, the GI50 [23] was 0.57 µM and the CC50 ([23]; read-out: LC50, OVCAR-8, 48 h) was 6.43 µM. For the same compound, the GI50 [24] was 0.45 µM, the GI50 [25] was 0.61 µM and the GI50 [40] was 0.52 µM. For the same compound, the CC50 ([40]; read-out: LC50, UO-31, 48 h) was 4.31 µM, the GI50 [26] was 1.14 µM and the CC50 [26] was 6.09 µM. The GI50 [27] was 0.76 µM, the CC50 [27] was 4.4 µM and the GI50 ([28]; HL-60(TB), 48 h) was 1.11 µM. For the same compound, the TGI ([28]; HL-60(TB), 48 h) was 3.32 µM and 2.81 µM, the GI50 ([28]; Homo sapiens, HL-60, 48 h, HL-60(TB), 48 h) was 0.75 µM and the GI50 [29] was 1.05 µM. For the same compound, the TGI [29] was 3.34 µM and 2.48 µM, the GI50 ([29]; Homo sapiens) was 1.74 µM and the CC50 [29, 41] was 6.41 µM. For the same compound, the GI50 ([30]; Homo sapiens) was 1 µM, the CC50 ([30]; Homo sapiens) was 5.54 µM and the GI50 [30] was 0.63 µM. For the same compound, the TGI [30] was 2.36 µM and 2.31 µM, the GI50 [31] was 0.16 µM and the TGI [31] was 0.51 µM and 0.35 µM. It also gave a GI50 ([31]; Homo sapiens) of 0.19 µM, a GI50 ([32]; Homo sapiens) of 1.91 µM and a CC50 ([32]; Homo sapiens) of 8.72 µM. The GI50 [32] was 1.7 µM, the TGI [32] was 4.08 µM and 3.36 µM and the CC50 [33] was 6.01 µM. For the same compound, the TGI [33] was 2.95 µM and 2.33 µM, the CC50 [34, 42] was 5.01 µM and the CC50 ([34]; read-out: LC50, IGROV1, 48 h) was 2.67 µM. For the same compound, the “MG_MID TGI” value [35] was 1.92 µM, the GI50 [35] was 0.87 µM and the CC50 [35] was 11.7 µM.
